The text below walks through data of patent US20120245344A1 (NIPPON CHEMIPHAR CO., LTD., priority 2009, published 2012).

For one assay, the target named is T1, human GPR119 (Homo sapiens, UniProt Q8TDV5).
T1 construct: expressed in transfected cells; host or cells: Flp-in T-Rex-293 cells (Invitrogen #R78007), plasmid pcDNA5/FRT/TO, expression induced with tetracycline
T1 sequence (Q8TDV5 1-335): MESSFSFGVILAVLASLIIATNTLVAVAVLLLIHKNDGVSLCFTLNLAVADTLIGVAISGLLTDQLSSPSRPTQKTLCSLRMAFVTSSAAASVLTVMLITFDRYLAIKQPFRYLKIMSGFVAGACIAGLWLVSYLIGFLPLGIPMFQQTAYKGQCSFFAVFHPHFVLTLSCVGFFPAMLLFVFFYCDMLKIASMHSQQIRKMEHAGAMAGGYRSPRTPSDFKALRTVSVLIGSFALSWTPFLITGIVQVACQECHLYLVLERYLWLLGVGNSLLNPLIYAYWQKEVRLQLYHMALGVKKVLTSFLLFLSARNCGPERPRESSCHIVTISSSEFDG
The experiment in a line: Measurement of intracellular cAMP in stable cell line expressing human GPR119 (GPR119 agonist effect). The format is cell-based. As to conditions: increase of intracellular cAMP, Flp-in T-Rex-293 cells expressing human GPR119, 37° C. for 30 minutes.
Source text: The GPR119 agonist effect is studied by measuring the effect of an analyte on increase of intracellular amount of cAMP in human GPR119 introduced cells. The testing method is described below.
Human GPR119 gene (NM 178471) is purchased from ATCC (ATCC No. 10807349), and is amplyfied according to PCR to form BamHI site at 5′ side and Apa I site at 3′ side. The primers are […] (sequence No. 1) and […] (sequence No. 2). The PCR conditions are described below.
The double-stranded DNA is thermally denatured using a DNA polymerase (KOD-Plus-Ver. 2; TOYOBO #KOD-211) at 98° C. for 10 seconds in one cycle. The denatured single-stranded DNA is annealed with the primers at 55° C. for 30 seconds. The DNA is subjected to an extension reaction at 68° C. for 1 minute and 15 seconds. The above-mentioned steps are repeated in 35 cycles. The PCR product is inserted into pcDNA5/FRT/TO (Invitrogen #V6520-20) plasmid. Flp-in T-Rex-293 cells (Invitorogen #R78007) are transfected with the obtained plasmid. The method of transfection is conducted in accordance with the protocol of the product.
(§1) The stable cell line expressing human GPR119 prepared in the above-mentioned method is plated on a 96-well plate at the concentration of 2,500 cells/well using Dulbecco's Modified Eagle Medium (DMEM) containing 10% fetal bovine serum (FBS). Twenty-four hours after plating, tetracyclin (Invitrogen #Q10019) is added at the final concentration of 20 ng/mL to induce hGPR119 gene expression. Twenty-four hours after, the medium is removed, and the cells are stimulated with an assay buffer (0.5 mM IBMX PBS (−)) containing the test compound at 37° C. for 30 minutes. The amount of the intracellular cAMP is measured using a commercially available kit (HitHunter™ cAMP XS+Assay: GE Healthcare #90007503) and a reader (FLUOstar Optima: BMG LABTECH). The test compound is dissolved in 100% DMSO, and added at the final concentration of 1%.
Human GPR119 gene (NM 178471) was purchased from ATCC (ATCC No. 10807349), and is amplyfied according to PCR to form BamHI site at 5′ side and Apa I site at 3′ side. The primers were […] (sequence No. 1) and […] (sequence No. 2). The PCR conditions are described below. The double-stranded DNA was thermally denatured using a DNA polymerase (KOD-Plus-Ver. 2; TOYOBO #KOD-211) at 98° C. for 10 seconds in one cycle. The denatured single-stranded DNA was annealed with the primers at 55° C. for 30 seconds. The DNA was subjected to an extension reaction at 68° C. for 1 minute and 15 seconds. The above-mentioned steps were repeated in 35 cycles. The PCR product was inserted into pcDNA5/FRT/TO (Invitrogen #V6520-20) plasmid. Flp-in T-Rex-293 cells (Invitorogen #R78007) were transfected with the obtained plasmid. The method of transfection was conducted in accordance with the protocol of the product.
as §1, with “method was” for “method is”, “#Q10019) was” for “#Q10019) is”, “medium was” for “medium is”, “cells were” for “cells are”, “cAMP was” for “cAMP is”, “compound was” for “compound is”
The examination was performed by the method similar to Example 87 Pharmacological experiment 1-(1), -(2).
Turning to `CCc1cnc(N2CCC(c3ccc(Cn4ccc5cc(S(C)(=O)=O)cc(F)c54)nc3)CC2)nc1` [Example 34, 5-Ethyl-2-[4-[2-(7-fluoro-5-methanesulfonylindol-1-ylmethyl)pyridin-5-yl]piperidin-1-yl]pyrimidine], the EC50 (commonly the midpoint of the concentration-response curve) was 30.4 nM.

Take `CC(C)(C)OC(=O)N1CCC(c2ccc(CN3CCc4cc(-n5cnnn5)cc(F)c43)nc2)CC1` [Example 38, tert-Butyl 4-[2-[7-fluoro-5-(tetrazol-1-yl)indolin-1-ylmethyl]pyridin-5-yl]piperidine-1-carboxylate]: the EC50 came out at 5.4 nM.

Compound `CC(C)(C)OC(=O)N1CCC(c2ccc(Cn3ccc4cc(-n5cnnn5)cc(F)c43)nc2)CC1` [Example 41, tert-Butyl 4-[2-[7-fluoro-5-(tetrazol-1-yl)indol-1-ylmethyl]pyridin-5-yl]piperidine-1-carboxylate] displayed a 50% effective concentration (EC50) of 3.7 nM.

Consider `CC(C)(C)OC(=O)N1CCC(c2ccc(Cn3ccc4c(F)c(S(C)(=O)=O)cc(F)c43)nc2)CC1` [Example 42, tert-Butyl 4-[2-(4,7-difluoro-5-methanesulfonylindol-1-ylmethyl)pyridin-5-yl]piperidine-1-carboxylate], for which it took 22.9 nM to reach a half-maximal effect (EC50).

For the compound `CC1CN(C(=O)OC(C)(C)C)CC=C1c1ccc(Cn2ccc3cc(S(C)(=O)=O)ccc32)nc1` (centres unmarked) [Example 43, tert-Butyl 4-[2-(5-methanesulfonylindol-1-ylmethyl)pyridin-5-yl]-3-methyl-3,6-dihydro-2H-pyridine-1-carboxylate], the EC50 came out at 58.7 nM.

Regarding `CC1CN(C(=O)OC(C)(C)C)CCC1c1ccc(Cn2ccc3cc(S(C)(=O)=O)ccc32)nc1` (centres unmarked) [Example 44, tert-Butyl 4-[2-(5-methanesulfonylindol-1-ylmethyl)pyridin-5-yl]-3-methylpiperidine-1-carboxylate], a half-maximal response (EC50) required 13.5 nM.

Turning to `CC(C)(C)OC(=O)N1CC=C(c2ccc(Cn3ccc4cc(S(C)(=O)=O)ccc43)nc2)C(C)(C)C1` [Example 45, tert-Butyl 3,3-dimethyl-4-[2-(5-methanesulfonylindol-1-ylmethyl)pyridin-5-yl]-3,6-dihydro-2H-pyridine-1-carboxylate], the EC50 was found to be 186 nM.

In turn, `CC(C)(C)OC(=O)N1CCC(c2ccc(Cn3ccc4cc(S(C)(=O)=O)ccc43)nc2)C(C)(C)C1` (centres unmarked) [Example 46, tert-Butyl 3,3-dimethyl-4-[2-(5-methanesulfonylindol-1-ylmethyl)pyridin-5-yl]piperidine-1-carboxylate] displayed an EC50 of 111 nM.

`CC(C)(C)OC(=O)N1CCC(c2ccc(Cn3ccc4cc(S(C)(=O)=O)cc(C(F)(F)F)c43)nc2)CC1` [Example 49, tert-Butyl 4-[2-(5-methanesulfonyl-7-trifluoromethylindol-1-ylmethyl)pyridin-5-yl]piperidine-1-carboxylate] registered an EC50 of 297 nM.

On to `CC(C)(C)OC(=O)N1CCC(c2ccc(Cn3ccc4cc(S(C)(=O)=O)ccc43)nc2)C1` (centres unmarked) [Example 50, tert-Butyl 3-[2-(5-methanesulfonylindol-1-ylmethyl)pyridin-5-yl]pyrrolidine-1-carboxylate], for which the EC50 worked out at 375 nM.

Take `CC(C)(C)OC(=O)N1CCCC(c2ccc(Cn3ccc4cc(S(C)(=O)=O)ccc43)nc2)CC1` (centres unmarked) [Example 51]: the EC50 was 115 nM.

With `CC(C)(C)OC(=O)N1CCC(c2ccc(Cn3ccc4cc(S(C)(=O)=O)c(F)c(F)c43)nc2)CC1` [Example 55, tert-Butyl 4-[2-(6,7-difluoro-5-methanesulfonylindol-1-ylmethyl)pyridin-5-yl]piperidine-1-carboxylate], the EC50 was 10.7 nM.

`CC(C)(C)OC(=O)N1CCC(c2ccc(Cn3ccc4cc(-n5cncn5)ccc43)nc2)CC1` [Example 56, tert-Butyl 4-[2-[5-(1,2,4-triazol-1-yl)indol-1-ylmethyl]pyridin-5-yl]piperidine-1-carboxylate] came in with an EC50 of 26.2 nM.

Turning to `CC(C)(C)OC(=O)N1CCC(c2ccc(Cn3ccc4c(F)c(S(C)(=O)=O)c(F)cc43)nc2)CC1` [Example 57, tert-Butyl 4-[2-(4,6-difluoro-5-methanesulfonylindol-1-ylmethyl)pyridin-5-yl]piperidine-1-carboxylate], a half-maximal effect (EC50) was put at 17.4 nM.

The compound `Cc1cc(C2CCN(C(=O)OC(C)(C)C)CC2)cnc1Cn1ccc2cc(-n3cncn3)ccc21` [Example 58, tert-Butyl 4-[3-methyl-2-[5-(1,2,4-triazol-1-yl)indol-1-ylmethyl]pyridin-5-yl]piperidine-1-carboxylate] registered an EC50 of 13.1 nM.

Compound `Cc1cc(C2CCN(C(=O)OC(C)C)CC2)cnc1Cn1ccc2cc(-n3cncn3)ccc21` [Example 59, Isopropyl 4-[3-methyl-2-[5-(1,2,4-triazol-1-yl)indol-1-ylmethyl]pyridin-5-yl]piperidine-1-carboxylate] had an EC50 of 104 nM.

For the compound `CC1CN(C(=O)OC(C)(C)C)CC=C1c1ccc(Cn2ccc3c(F)c(S(C)(=O)=O)c(F)cc32)nc1` (centres unmarked) [Example 62, tert-Butyl 4-[2-(4,6-difluoro-5-methanesulfonylindol-1-ylmethyl)pyridin-5-yl]-3-methyl-3,6-dihydro-2H-pyridine-1-carboxylate], the EC50 was determined as 65.2 nM.

On to `CC(C)OC(=O)N1CC=C(c2ccc(Cn3ccc4cc(-n5cnnn5)cc(F)c43)nc2)C(C)C1` (centres unmarked) [Example 67, Isopropyl 4-[2-[7-fluoro-5-(tetrazol-1-yl)indol-1-ylmethyl]pyridin-5-yl]-3-methyl-3,6-dihydro-2H-pyridine-1-carboxylate], for which the EC50 came out at 45.9 nM.

For `C[C@H]1C=C(c2ccc(Cn3ccc4cc(S(C)(=O)=O)ccc43)nc2)C[C@H](C)N1C(=O)OC(C)(C)C` [Example 68, tert-Butyl (2S,6S)-2,6-dimethyl-4-[2-(5-methanesulfonylindol-1-ylmethyl)pyridin-5-yl]-3,6-dihydro-2H-pyridine-1-carboxylate], it took 96.8 nM to reach a half-maximal effect (EC50).

In the case of `C[C@H]1CC(c2ccc(Cn3ccc4cc(S(C)(=O)=O)ccc43)nc2)C[C@H](C)N1C(=O)OC(C)(C)C` (stereo partly drawn) [Example 69, tert-Butyl (2S,6S)-2,6-dimethyl-4-[2-(5-methanesulfonylindol-1-ylmethyl)pyridin-5-yl]piperidine-1-carboxylate], the response was half-maximal at 17.5 nM (EC50).

With `COC(=O)c1ccc2c(ccn2Cc2ncc(C3CCN(C(=O)OC(C)(C)C)CC3)cc2F)c1` [Example 71, tert-Butyl 4-[3-fluoro-2-[5-(methoxycarbonyl)indol-1-ylmethyl)pyridin-5-yl]piperidine-1-carboxylate], the EC50 was 191 nM.

Staying with this assay, now noted: statement in words on Tables 10 to 13.
Regarding `CC(C)(C)OC(=O)N1CCC(c2ccc(CN3CCc4cc(-n5cnnn5)cc(F)c43)nc2)CC1` [Example 38, tert-Butyl 4-[2-[7-fluoro-5-(tetrazol-1-yl)indolin-1-ylmethyl]pyridin-5-yl]piperidine-1-carboxylate], the “GPR119 agonist effect (in words)” value is listed as “excellent GPR119 agonist effect”.

For the compound `CC(C)(C)OC(=O)N1CCC(c2ccc(Cn3ccc4cc(-n5cnnn5)cc(F)c43)nc2)CC1` [Example 41, tert-Butyl 4-[2-[7-fluoro-5-(tetrazol-1-yl)indol-1-ylmethyl]pyridin-5-yl]piperidine-1-carboxylate], the “GPR119 agonist effect (in words)” value was “excellent GPR119 agonist effect”.
